Assay results reported in patent US20200017496A1 (priority 2017, published 2020).
Where two headings read alike, the source gives them in different places.

How the values were obtained:
Assay in all cases: MIC of compounds alone and combined with antibacterials, broth microdilution (CLSI)
Format in all cases: cell-based
[1] = test system: Citrobacter freundii (CFR) isolates; settings: for MIC: Citrobacter freundii
Outline: (§1)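 Compound MIC, and antibacterial MIC at each fixed compound level, taken by visual inspection as lowest concentration stopping growth. Inoculum: log-phase bacteria, final 5·10^5 CFU/mL, cation-adjusted Mueller-Hinton broth; 16-20 h, 35° C, ambient air.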

[2] = test system: Enterobacter cloacae (ECL) isolates; settings: for MIC: Enterobacter cloacae, ATB alone
Outline: as §1

[3] = test system: Serratia marcescens (SMA) isolates; settings: AF1 @ 4 μg/mL
Outline: as §1

CO/N=C(\C(=O)N[C@@H]1C(=O)N2C(C(=O)O)=C(COC(N)=O)CS[C@H]12)c1ccco1 [FUR, Cefuroxime]
> 512 µg/mL: MIC ([2]; strain ECL P99 (AmpC), read-out: MIC)
> 256 µg/mL: MIC [1] | MIC ([1]; strain CFR UFR10 (OXA-48), ATB alone, read-out: MIC) | MIC ([1]; strain CFR UFR11 (TEM-1, OXA-1, OXA-48), ATB alone, read-out: MIC) | MIC ([1]; strain CFR UFR83 (TEM-3, AmpC), ATB alone, read-out: MIC) | MIC ([1]; strain CFR UFR248 (CTX-M-15), ATB alone, read-out: MIC) | MIC ([1]; strain CFR UFR249 (TEM-1, CTX-M-15), ATB alone, read-out: MIC) | MIC ([1]; strain CFR UFR250 (TEM-1, SHV-28, CTX-M-15), ATB alone, read-out: MIC) | MIC ([2]; strain ECL UFR197 (TEM-1, CTX-M-15, OXA-1, OXA-48)) | MIC ([2]; strain ECL UFR198 (TEM-1, SHV-12, CTX-M-15, DHA-1, OXA-1, OXA-48)) | MIC ([2]; strain ECL 2185D (OXA-163)) | MIC ([2]; strain ECL 190310 (AmpC)) | MIC ([2]; strain ECL 190408 (TEM-1, CTX-M-15, OXA-1)) | MIC ([2]; strain ECL 200138 (AmpC)) | MIC ([2]; strain ECL 200322 (TEM-1, CTX-M-15, OXA-1)) | MIC ([2]; strain ECL 260033 (AmpC)) | MIC ([2]; strain ECL 260253 (TEM-1, KPC-3)) | MIC ([2]; strain ECL 260323 (AmpC)) | MIC ([2]; strain ECL 260508 (TEM-1, CTX-M-15)) | MIC ([2]; strain ECL NEM146383 (AmpC)) | MIC ([2]; strain ECL UFR12 (CTX-M-9, OXA-48)) | MIC ([2]; strain ECL UFR13 (TEM-1, SHV-12, CTX-M-9, OXA-48)) | MIC ([2]; strain ECL UFR14 (TEM-1, SHV-12, CTX-M-15, DHA-1, OXA-1, OXA-48)) | MIC ([2]; strain ECL UFR60 (TEM-1, CTX-M-15, KPC-2)) | MIC ([2]; strain ECL UFR70 (TEM-1, CTX-M-15, CMY-2, OXA-1, Porin loss)) | MIC ([2]; strain ECL UFR84 (TEM-1, AmpC, OXA-1)) | MIC ([2]; strain ECL UFR85 (TEM-1, CTX-M-15, AmpC)) | MIC ([2]; strain ECL UFR195 (TEM-1, CTX-M-15, OXA-1, OXA-48)) | MIC ([2]; strain ECL UFR196 (TEM-1, CTX-M-15, OXA-1, OXA-48)) | MIC ([2]; strain ECL UFR200 (TEM-1, SHV-12, KPC-2))
>128 µg/mL: MIC ATB in combination ([1]; CFR UFR11, AF1 @ 4 μg/mL) | MIC ATB in combination ([1]; CFR UFR83, AF1 @ 4 μg/mL) | MIC ATB in combination ([3]; SMA UFR135) | MIC ATB in combination ([3]; SMA UFR136) | MIC ATB in combination ([3]; SMA UFR239)
2 µg/mL: MIC ATB in combination ([1]; strain CFR UFR254, antibacterial combined with AF1 @ 4 μg/mL)
128 µg/mL: MIC ATB in combination ([3]; SMA UFR141)
16 µg/mL: MIC ATB in combination ([1]; CFR UFR146, AF1 @ 4 μg/mL) | MIC ATB in combination ([2]; ECL UFR12, AF1 @ 4 μg/mL) | MIC ATB in combination ([2]; ECL UFR200, AF1 @ 4 μg/mL)
32 µg/mL: MIC ([1]; ATB alone, strain CFR UFR253 (TEM-1, SHV-12, OXA-48), read-out: MIC) | MIC ([1]; ATB alone, strain CFR UFR254 (VEB-1b, OXA-48, qnrA), read-out: MIC) | MIC ATB in combination ([2]; ECL 200322, AF1 @ 4 μg/mL) | MIC ATB in combination ([2]; ECL 260508, AF1 @ 4 μg/mL) | MIC ATB in combination ([2]; ECL UFR70, AF1 @ 4 μg/mL) | MIC ATB in combination ([2]; ECL UFR194, AF1 @ 4 μg/mL) | MIC ([2]; strain ECL UFR194 (OXA-48)) | MIC ATB in combination ([2]; strain ECL UFR195, antibacterial combined with AF1 @ 4 μg/mL) | MIC ATB in combination ([3]; SMA UFR137) | MIC ATB in combination ([3]; SMA UFR143)
8 µg/mL: MIC ATB in combination ([1]; CFR UFR10, AF1 @ 4 μg/mL) | MIC ATB in combination ([1]; CFR UFR248, AF1 @ 4 μg/mL) | MIC ATB in combination ([1]; CFR UFR249, AF1 @ 4 μg/mL) | MIC ATB in combination ([1]; CFR UFR250, AF1 @ 4 μg/mL)
4 µg/mL: MIC ATB in combination ([1]; strain CFR UFR253, antibacterial combined with AF1 @ 4 μg/mL) | MIC ATB in combination ([2]; ECL 190408, AF1 @ 4 μg/mL)
64 µg/mL: MIC ATB in combination ([2]; ECL P99, AF1 @ 4 μg/mL) | MIC ATB in combination ([2]; ECL UFR60, AF1 @ 4 μg/mL) | MIC ATB in combination ([2]; strain ECL UFR196, antibacterial combined with AF1 @ 4 μg/mL) | MIC ATB in combination ([2]; strain ECL UFR197, antibacterial combined with AF1 @ 4 μg/mL) | MIC ATB in combination ([3]; SMA UFR30) | MIC ATB in combination ([3]; SMA UFR134) | MIC ATB in combination ([3]; SMA UFR138) | MIC ATB in combination ([3]; SMA UFR139) | MIC ATB in combination ([3]; SMA UFR142)
